System: neonatal mouse cardiac myocytes
Format: cell-based
Details: DOX 0.5–5 μM with 1 μM sildenafil
Procedure: Neonatal mouse myocytes in culture are incubated with 0.5–5 μM of DOX (in the presence or absence of 1 μM sildenafil) for 18 hours. The cells are then incubated with drug free growth medium for an additional 24 hours. Cytotoxicity of DOX is quantitatively assessed by measuring the percentage of cells killed and the amount of creatine kinase (CK) released into the media. In addition, a trypan blue exclusion assay and propidium iodide nuclear stain are used to quantitate cell death. Since DOX induces cardiomyopathy through the release of reactive oxygen species, lipid peroxidation in the cells is also measured as an index of oxidative damage.
Neonatal mouse cardiac myocyte cultures are used for membrane potential studies. Cells in culture are treated with 0.5–5 μM of DOX (in the presence or absence of 1 μM sildenafil) for 18 hours. The cells are then incubated with drug free growth medium for an additional 24 hours. Additional groups are included where the cells are treated with a mitoKATP channel blocker (5-hydroxydecanoate, 100 μM), surface channel blocker (HMR1098, 30 μM) or cyclosporine, a mitochondrial membrane potential (Ψm) blocker (5 μM). For assessment of apoptosis, the TUNEL assay is used, which is an accurate method for distinguishing apoptosis from necrosis by specifically detecting DNA cleavage and chromatin condensation characteristic of apoptosis. Additionally, positive TUNEL staining directly correlates with the more typical biochemical and morphological aspects of apoptosis. Since an understanding of cell morphology is critical for data interpretation, apoptotic morphology is simultaneously assessed according to accepted scientific criteria previously described (Nor-Avi, 1999). The in situ staining of DNA strand breaks detected by the TUNEL assay along with subsequent morphological observation via epifluorescent, confocal, and electron microscopy, provides significant and reliable data regarding the identification of apoptotic cells, even in tissue samples where apoptosis represents a small segment of the population (Manning 1994). In addition, several other key indicators of apoptosis including annexin-V, cytosolic cytochrome c, caspase 3, caspase 8, as well as poly (ADP-ribose) polymerase cleavage in these groups, are measured. Mitochondrial membrane potential (Ψm) using a fluorescent indicator probe, JC-1 (Molecular Probes, Eugene, Oreg.) is measured.

Compound: CCCc1nn(C)c2c(=O)[nH]c(-c3cc(S(=O)(=O)N4CCN(C)CC4)ccc3OCC)nc12 [sildenafil]
- effect on DOX-induced apoptosis indicators: aborted
- effect on DOX-induced parameters of injury (CK release, trypan blue uptake, lipid hydroperoxides): reversed
